Laboratory results taken from patent US10323028B2, “1,3,4-thiadiazole compounds and their use in treating cancer” (AstraZeneca AB, priority 2015, dated 2019).
Like-named read-outs stand apart in the source and are kept apart here.

What was measured:
NCI-H1703 cells = assay: GLS Cell Proliferation Assay (NCI-H1703 cell proliferation); format: cell-based
Text: (§1) The following assays were used to measure the effects of the compounds described herein: a) GLS Enzyme Potency Assay; b) GLS Cell Potency Assay; c) GLS Cell Proliferation Assay. During the description of the assays, generally: • i. The following abbreviations have been used: CO2=Carbon dioxide; DMEM=Dulbecco's Modified Eagle Medium; DMSO=Dimethyl sulphoxide; EDTA=Ethylenediaminetetraacetic acid; EGTA=Ethylene glycol tetraacetic acid; FCS=Foetal calf serum; h=Hour(s); NBS=Non-binding surface; SDS=Sodium dodecyl sulphate; TRIS=Tris(Hydroxymethyl)aminomethane. • ii. IC50 values were calculated using a smart fitting model in Genedata.
Assay c): GLS Cell Proliferation Assay
The ability of compounds to inhibit cell growth was measured using a 384 well plate NCI-H1703 cell proliferation assay. NCI-H1703 cells were grown in phenol red free RPMI1640, 10% FCS and 2 mM glutamine and seeded at a density of 750 cells per well in 40 μl of growth medium into clear-bottom 384 well assay plates (Corning product code 3712) and incubated for 24 h at 37° C., 5% CO2. […] DMSO concentration was maintained at 0.3% by back filling with DMSO solution. Plates were incubated for 5 days at 37° C., 5% CO2, Sytox Green and Saponin added to final concentration of 2 μM and 0.25% respectively and incubated for 6 h prior to analysis. […] IC50 values were calculated by curve fitting to max inhibition of day zero growth using GeneData software analysis.

GLS1 = GLS1 (Homo sapiens (Human), UniProt O94925); assay: GLS Enzyme Potency Assay (Glutamate Oxidase/AmplexRed coupled assay); format: biochemical; details: 6His tagged GLS protein (amino acids 63-669), recombinant; read-out: Assay a) enz IC50
Text: as §1
Assay a): GLS Enzyme Potency Assay
A Glutamate Oxidase/AmplexRed coupled assay was used to measure the ability of compounds to bind to and inhibit the activity of GLS1 in vitro. […] GLS1 was diluted to 2× working concentration and incubated at room temperature to allow the tetrameric/dimeric forms to reach steady state. Assay measurements were performed in buffer comprising 50 mM TRIS pH 7.8, 100 mM NaPO4, pH 7.8, 0.001% v/v Tween20. Purified recombinant GLS1 protein was diluted in assay buffer to 12 nM and pre-incubated at room temperature for 30 minutes. […] DMSO concentration was maintained at 2% by back filling with DMSO solution. 3 μL of diluted GLS1 protein (12 nM) was then dispensed into each well using a BioRaptr automated dispenser (Beckman-Coulter) and incubated for 15 minutes at room temperature. 3 μL of 100 mM glutamine diluted in assay buffer was then added and the reaction incubated at room temperature for 60 minutes. […] An artefact version of the assay where the 6His tagged GLS protein and glutamine were replaced with assay buffer was also used to rule out non specific effects on the assay components.

[1] = molecular target: cellular GLS activity in PC3 cells (Homo sapiens (Human), UniProt O94925); assay: GLS Cell Potency Assay (PC3 coupled assay measuring cellular glutamate depletion); format: cell-based; details: PC3 cells, 6 h incubation, glutamate depletion; read-out: Assay b) GLS cell MOA Mean IC50
Text: as §1
Assay b): GLS Cell Potency Assay
Compounds were assessed for their potential to inhibit cellular GLS activity by use of a PC3 coupled assay measuring cellular glutamate depletion. […] DMSO concentration was maintained at 0.3% by back filling with DMSO solution. PC3 cells were grown in phenol free DMEM, 10% dialyzed FCS, 2 mM glutamine and following dispersal by trypsinisation were plated at 5.6×10^3 cells per well in 40 μl of growth medium directly into the 384 well assay plates containing dispensed compound. After incubation for 6 h at 37° C., 5% CO2 growth media was aspirated and cells lysed in 15 μl of buffer containing 10 mM TRIS pH7.4, 100 mM NaCl, 1 mM EDTA, 1 mM EGTA, 1 mM NaF, 20 mM Na4P2O7, 2 mM Na3VO4, 1% Triton X-100, 10% glycerol, 0.1% SDS and 0.5% deoxycholate.

[2] = NCI-H1703 cells, 5 days; read-out: Assay c) Prolif Mean IC50
[3] = Homo sapiens, NCI-H1703, 120 h, NCI-H1703 cells, 5 days; read-out: Assay c) Prolif Mean IC50

GLS1, sequence (O94925 63-669): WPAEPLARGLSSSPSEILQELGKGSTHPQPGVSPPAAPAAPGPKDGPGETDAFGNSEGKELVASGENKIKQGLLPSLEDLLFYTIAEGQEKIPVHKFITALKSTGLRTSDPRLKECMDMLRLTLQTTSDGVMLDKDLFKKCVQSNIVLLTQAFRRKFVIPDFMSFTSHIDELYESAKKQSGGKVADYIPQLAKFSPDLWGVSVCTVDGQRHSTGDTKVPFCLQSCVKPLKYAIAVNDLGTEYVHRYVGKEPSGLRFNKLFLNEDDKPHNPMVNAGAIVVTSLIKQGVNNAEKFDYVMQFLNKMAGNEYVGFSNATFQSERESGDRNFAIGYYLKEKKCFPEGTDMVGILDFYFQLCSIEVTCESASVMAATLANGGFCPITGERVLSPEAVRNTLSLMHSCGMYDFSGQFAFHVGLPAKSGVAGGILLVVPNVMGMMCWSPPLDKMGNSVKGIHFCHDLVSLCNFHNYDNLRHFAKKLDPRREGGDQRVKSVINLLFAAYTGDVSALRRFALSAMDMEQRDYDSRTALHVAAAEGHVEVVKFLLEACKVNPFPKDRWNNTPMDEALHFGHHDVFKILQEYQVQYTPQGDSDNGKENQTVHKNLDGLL
cellular GLS activity in PC3 cells, sequence (O94925 73-669): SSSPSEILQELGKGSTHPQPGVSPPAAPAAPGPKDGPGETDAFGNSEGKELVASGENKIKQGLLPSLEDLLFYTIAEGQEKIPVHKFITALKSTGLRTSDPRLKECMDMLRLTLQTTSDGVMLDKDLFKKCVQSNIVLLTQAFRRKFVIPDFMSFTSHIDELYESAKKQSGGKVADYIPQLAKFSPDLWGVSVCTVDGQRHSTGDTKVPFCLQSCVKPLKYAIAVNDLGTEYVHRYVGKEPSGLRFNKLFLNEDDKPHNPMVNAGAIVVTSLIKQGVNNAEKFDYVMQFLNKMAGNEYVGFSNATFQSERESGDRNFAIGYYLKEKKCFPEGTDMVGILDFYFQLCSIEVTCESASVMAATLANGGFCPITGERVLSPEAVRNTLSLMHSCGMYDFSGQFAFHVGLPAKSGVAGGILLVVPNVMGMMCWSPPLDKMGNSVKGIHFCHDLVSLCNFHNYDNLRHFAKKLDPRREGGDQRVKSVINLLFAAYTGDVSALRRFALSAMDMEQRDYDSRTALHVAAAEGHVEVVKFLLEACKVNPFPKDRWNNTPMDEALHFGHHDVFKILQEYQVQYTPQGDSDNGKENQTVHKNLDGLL

SMILES | IC50 (NCI-H1703 cells; [2]) | IC50 (GLS1) | also measured
CO[C@H](C(=O)Nc1nnc(N[C@@H]2CCN(c3cccnn3)C2)s1)c1cccc(N2CC(F)(F)C2)c1 (single isomer, unassigned) [2(b)] | 28.6 nM |  | 
COC[C@H](C(=O)Nc1nnc(N[C@@H]2CCN(c3cccnn3)C2)s1)c1cccc(OC)c1 (single isomer, unassigned) [5(b)] | 120 nM |  | 
COC1CN(c2cccc([C@H](OC)C(=O)Nc3nnc(N[C@@H]4CCN(c5ccc(F)nn5)C4)s3)c2)C1 (single isomer, unassigned) [9(b)] | 122 nM |  | 
COc1cc([C@H](OC)C(=O)Nc2nnc(N[C@@H]3CCN(c4cccnn4)C3)s2)cc(N2CC(F)C2)c1 (single isomer, unassigned) [10(b)] |  |  | IC50 (NCI-H1703 cells; [3]): 43.4 nM
COc1cc(OC(F)(F)F)cc([C@H](OC)C(=O)Nc2nnc(N[C@@H]3CCN(c4cccnn4)C3)s2)c1 (single isomer, unassigned) [11(b)] | 1.04 nM |  | 
COC1CN(c2cccc([C@H](OC)C(=O)Nc3nnc(N[C@@H]4CCN(c5ccc(C)nn5)C4)s3)c2)C1 (single isomer, unassigned) [12(b)] | 524 nM |  | 
COC1CN(c2cccc([C@H](OC)C(=O)Nc3nnc(N[C@@H]4CCN(c5nccnn5)C4)s3)c2)C1 (single isomer, unassigned) [13(b)] | 497 nM |  | 
CO[C@H](C(=O)Nc1nnc(N[C@@H]2CCN(c3nccnn3)C2)s1)c1cccc(N2CC(F)(F)C2)c1 (single isomer, unassigned) [14(b)] | 156 nM | 660 nM | 
CO[C@H](C(=O)Nc1nnc(N[C@@H]2CCN(c3nccnn3)C2)s1)c1cccc(N2CC(F)C2)c1 (single isomer, unassigned) [15(b)] | 376 nM | 1310 nM | 
COc1cc(OC)cc([C@H](OC)C(=O)Nc2nnc(N[C@@H]3CCN(c4nccnn4)C3)s2)c1 (single isomer, unassigned) [16(b)] |  | 689 nM | 
CCO[C@H](C(=O)Nc1nnc(N[C@@H]2CCN(c3cccnn3)C2)s1)c1cccc(OC(F)F)c1 (single isomer, unassigned) [17(b)] | 34.9 nM |  | 
CCO[C@H](C(=O)Nc1nnc(N[C@@H]2CCN(c3cccnn3)C2)s1)c1cccc(OC(F)(F)F)c1 (single isomer, unassigned) [19(b)] | 7.59 nM |  | 
CO[C@H](C(=O)Nc1nnc(N[C@@H]2CCN(c3cccnn3)C2)s1)c1ccc(F)c(OC(F)(F)F)c1 (single isomer, unassigned) [20(b)] | 2.65 nM |  | 
CO[C@H](C(=O)Nc1nnc(N[C@@H]2CCN(c3cccnn3)C2)s1)c1cccc(N2CC(F)(F)C2)c1 (single isomer, unassigned) [Example 2(a)] | 2.5 nM |  | 
COC[C@H](C(=O)Nc1nnc(N[C@@H]2CCN(c3cccnn3)C2)s1)c1cccc(OC)c1 (single isomer, unassigned) [Example 5(a)] | 11.7 nM |  | 
CCO[C@H](C(=O)Nc1nnc(N[C@@H]2CCN(c3cccnn3)C2)s1)c1cc(OC)cc(OC)c1 (single isomer, unassigned) [Example 6(a)] | 2.2 nM |  | 
CO[C@H](C(=O)Nc1nnc(N[C@@H]2CCN(c3cccnn3)C2)s1)c1ccc(F)c(N2CC(F)C2)c1 (single isomer, unassigned) [Example 8(a)] |  |  | IC50 (NCI-H1703 cells; [3]): 57.6 nM
COC1CN(c2cccc([C@H](OC)C(=O)Nc3nnc(N[C@@H]4CCN(c5ccc(F)nn5)C4)s3)c2)C1 (single isomer, unassigned) [Example 9(a)] | 4.9 nM |  | 

SMILES | IC50 (NCI-H1703 cells; [2]) | IC50 (GLS1) | also measured
COc1cc(OC(F)(F)F)cc([C@H](OC)C(=O)Nc2nnc(N[C@@H]3CCN(c4cccnn4)C3)s2)c1 (single isomer, unassigned) [Example 11(a)] |  |  | IC50 (NCI-H1703 cells; [3]): 1.7 nM
COC1CN(c2cccc([C@H](OC)C(=O)Nc3nnc(N[C@@H]4CCN(c5ccc(C)nn5)C4)s3)c2)C1 (single isomer, unassigned) [Example 12(a)] | 32.9 nM |  | 
COC1CN(c2cccc([C@H](OC)C(=O)Nc3nnc(N[C@@H]4CCN(c5nccnn5)C4)s3)c2)C1 (single isomer, unassigned) [Example 13(a)] |  | 75.1 nM | 
CO[C@H](C(=O)Nc1nnc(N[C@@H]2CCN(c3nccnn3)C2)s1)c1cccc(N2CC(F)(F)C2)c1 (single isomer, unassigned) [Example 14(a)] | 5.89 nM | 91.5 nM | 
CO[C@H](C(=O)Nc1nnc(N[C@@H]2CCN(c3nccnn3)C2)s1)c1cccc(N2CC(F)C2)c1 (single isomer, unassigned) [Example 15(a)] | 11.6 nM | 77.6 nM | 
COc1cc(OC)cc([C@H](OC)C(=O)Nc2nnc(N[C@@H]3CCN(c4nccnn4)C3)s2)c1 (single isomer, unassigned) [Example 16(a)] |  | 25.2 nM | IC50 (NCI-H1703 cells; [3]): 3.49 nM
CCO[C@H](C(=O)Nc1nnc(N[C@@H]2CCN(c3cccnn3)C2)s1)c1cccc(OC(F)F)c1 (single isomer, unassigned) [Example 17(a)] | 1.56 nM |  | 
CCO[C@H](C(=O)Nc1nnc(N[C@@H]2CCN(c3cccnn3)C2)s1)c1cccc(OC(F)(F)F)c1 (single isomer, unassigned) [Example 19(a)] | 2.61 nM |  | 
CO[C@H](C(=O)Nc1nnc(N[C@@H]2CCN(c3cccnn3)C2)s1)c1ccc(F)c(OC(F)(F)F)c1 (single isomer, unassigned) [Example 20(a)] | 6.57 nM |  | 
CCOC(C(=O)Nc1nnc(N[C@@H]2CCN(c3cccnn3)C2)s1)c1cccc(N2CC(F)C2)c1 (single isomer, unassigned) [Example 32] | 98.7 nM | 188 nM | 
COCC(C(=O)Nc1nnc(N[C@@H]2CCN(c3ccc(C)nn3)C2)s1)c1ccccc1 (single isomer, unassigned) [Example 45(a)] |  | 1600 nM | 
COC[C@H](C(=O)Nc1nnc(N[C@@H]2CCN(c3ccc(C)nn3)C2)s1)c1ccccc1 (single isomer, unassigned) [Example 45(a)] |  |  | IC50 [1]: 147 nM
CCO[C@H](C(=O)Nc1nnc(N[C@@H]2CCN(c3cccnn3)C2)s1)c1cccc(N2CC(OC)C2)c1 [Example 22(a), (2S)-2-ethoxy-2-[3-(3-methoxyazetidin-1-yl)phenyl]-N-[5-[[(3R)-1-pyridazin-3-ylpyrrolidin-3-yl]amino]-1,3,4-thiadiazol-2-yl]acetamide] |  |  | IC50 (NCI-H1703 cells; [3]): 5.35 nM
CCOC(C(=O)Nc1nnc(N[C@@H]2CCN(c3cccnn3)C2)s1)c1cccc(N2CC(OC)C2)c1 (stereo partly drawn) [Example 33, 2-ethoxy-2-[3-(3-methoxyazetidin-1-yl)phenyl]-N-[5-[[(3R)-1-pyridazin-3-ylpyrrolidin-3-yl]amino]-1,3,4-thiadiazol-2-yl]acetamide] | 5.35 nM |  | 
COC(C(=O)Nc1nnc(N[C@@H]2CCN(c3cccnn3)C2)s1)c1ccc(F)c(N2CC(F)(F)C2)c1 (stereo partly drawn) [Example 38, 2-[3-(3,3-difluoroazetidin-1-yl)-4-fluoro-phenyl]-2-methoxy-N-[5-[[(3R)-1-pyridazin-3-ylpyrrolidin-3-yl]amino]-1,3,4-thiadiazol-2-yl]acetamide] | 303 nM | 190 nM | 
COC(C(=O)Nc1nnc(N[C@@H]2CCN(c3ccc(C)nn3)C2)s1)c1cccc(N2CC(F)(F)C2)c1 (stereo partly drawn) [Example 40, 2-[3-(3,3-difluoroazetidin-1-yl)phenyl]-2-methoxy-N-[5-[[(3R)-1-(6-methylpyridazin-3-yl)pyrrolidin-3-yl]amino]-1,3,4-thiadiazol-2-yl]acetamide] | 82.5 nM | 311 nM | 
COC(C(=O)Nc1nnc(N[C@@H]2CCN(c3ccc(F)nn3)C2)s1)c1cccc(N2CC(F)(F)C2)c1 (stereo partly drawn) [Example 41, 2-[3-(3,3-difluoroazetidin-1-yl)phenyl]-N-[5-[[(3R)-1-(6-fluoropyridazin-3-yl)pyrrolidin-3-yl]amino]-1,3,4-thiadiazol-2-yl]-2-methoxy-acetamide] | 1.46 nM |  | 
